Source: patent US8758781B2, “Tissue scaffolds derived from forestomach extracellular matrix” (Mesynthes Ltd., priority 2008, dated 2014)

Experiments:
[1] = system: S. aureus; assay: Anti-microbial zone of inhibition on Mueller-Hinton agar; format: cell-based; design: key: ‘+++’ indicates a bioactivity comparable to the positive control; ‘−’ indicates no bioactivity; settings: positive control, solution on sterile filter paper disc
Protocol: Plates of Mueller-Hinton agar were prepared and streaked with 100 μL of 10^8 S. aureus and left to dry for 5-10 minutes. Using sterile technique, discs were transferred to the plates and the plates incubated for 24 hours at 35° C. After 24 hours, plates were digitally imaged and the anti-microbial zone of inhibition around each of the discs was scored relative to the positive control.

[2] = system: PC12 cells; assay: PC12 cell differentiation by growth factor released from laminates; format: cell-based; settings: growth factor solution control (50 ng/disc); 48 hours
Protocol: Specifically, a collagen gel was prepared as described in Example 3. Once formed the gel was spiked with either human recombinant FGF2 or NGF. Sterile FM scaffold sheets were cut to 8 mm discs, and growth factor spiked collagen gel (10 μL) was applied to one surface. A second FM scaffold disc was applied to the collagen layer to create a laminate sandwich (i.e., FM scaffold/bioactive collagen polymer/FM scaffold). The bioactive FM scaffold laminates were dehydrated at 25° C. for 2 hours to yield a bonded laminate. The FM laminates were produced with FGF2 or NGF at either 0, 250 or 500 ng/disc. The bioactive FM scaffolds were incubated at 37° C. for 24 hours in DMEM (1 mL) to extract the bound growth factor prior to application to a cell monolayer. PC12 cells were seeded onto 24-well plates at 20 k cells/well in DMEM (1 mL) and incubated for 24 hours at 37° C. Media was removed from the cells and replaced with DMEM (1 mL) that had been incubated with the bioactive FM scaffold laminates. Positive control cells were treated with a solution of either FGF2 or NGF at 50 ng/mL final concentration. Cells were incubated for 48 hours. […] Total cells were counted per frame, as well as the total number of cell processes per frame. […] Growth factor stimulated cell differentiation was expressed as the number of cell processes per cell per frame. Results are expressed as Table 19. […]

[3] = system: PI-3: Parainfluenza virus type 3 (Paramyxoviridae); settings: 0.3% PAA/5% Ethanol in PBS
Protocol: (§1) A study was undertaken to examine viral inactivation during the STOF processes and PAA treatment using three model viruses.
(§2) The level of viral inactivation was tested using a scaled-down manufacturing process. This involved spiking high-titre viral stocks of each of the three model viruses into samples representing two different stages of the manufacturing process, and subjecting these spiked samples to a treatment analogous to the corresponding manufacturing step. The level of virus inactivation during each treatment was determined by comparing the viral titres recovered from the spiked samples after each treatment, with viral recovery from untreated samples.
(§3) The model viruses were chosen to include viruses with different physio-chemical characteristics, such as the presence or absence of envelope, type of nucleic acid genome (DNA or RNA) and survival in the environment/resistance to disinfection (Table 22). The amount of infectious virus present in samples was determined by end-point titration and viral titres were expressed as tissue culture infective dose, 50% (TCID50).

[4] = system: FHV-1: Felid herpesvirus type 1 (Herpesviridae); assay: Viral inactivation in scaled-down manufacturing process; settings: 0.3% PAA/5% Ethanol in PBS
Protocol: as §1, §2, §3

[5] = system: BEV: Bovine enterovirus (Picornaviridae); assay: as above; settings: 0.3% PAA/5% Ethanol in PBS
Protocol: as §1, §2, §3

C[C@H]1c2cccc(O)c2C(=O)C2=C(O)[C@]3(O)C(=O)C(C(N)=O)=C(O)[C@@H](N(C)C)[C@@H]3[C@@H](O)[C@@H]21 [Doxycycline]
Antibacterial score ([1]; 30 μg/disc): +++

poly-L-lysine
Antibacterial score ([1]; 5 μg/disc): +++

rhFGF2: human recombinant FGF2 solution, positive control
Relative cell response (cell processes per cell per frame) [2]: 0.72 ± 0.02

CC(=O)OO [PAA, peracetic acid]
PAA Inactivation [3]: ≧2.3 log TCID50
PAA Inactivation [4]: ≧2.6 log TCID50
PAA Inactivation [5]: 7.3 log TCID50

rhNGF: NGF solution, positive control
Relative cell response (cell processes per cell per frame) [2]: 0.73 ± 0.01
